Article PMC7363588, “Mapping of the FGF14:Nav1.6 complex interface reveals FLPK as a functionally active peptide modulating excitability” (Physiological Reports, 2020)
“Also recorded” adds a separate entry of the source. Peptide text beside a SMILES is read from it.

Biological target: T1, FGF14:Nav1.6 complex (Homo sapiens, UniProt Q92915)
T1 construct: expressed in transfected cells; host or cells: HEK293, transient transfection
T1 sequence (Q92915 1-252 isoform Q92915-2): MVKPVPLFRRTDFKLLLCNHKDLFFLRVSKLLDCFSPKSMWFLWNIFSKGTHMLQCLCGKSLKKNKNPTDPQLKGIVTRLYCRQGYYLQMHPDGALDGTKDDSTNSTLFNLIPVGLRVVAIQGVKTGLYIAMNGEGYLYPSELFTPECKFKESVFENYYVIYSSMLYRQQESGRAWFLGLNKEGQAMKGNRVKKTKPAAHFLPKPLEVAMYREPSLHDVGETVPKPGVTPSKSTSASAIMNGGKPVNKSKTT
Assay: Split-luciferase complementation assay (LCA), CLuc-FGF14 wild type
Assay type: cell-based
Settings: for effect on FGF14:Nav1.6 complex formation: 50 µM, 12 hr, HEK293, % maximal luminescence vs DMSO, n = 6–10 independent experiments, FLPK, EYYV p < .01, PLEV p < .001
From the text: Plasmids used in this study derived from the following clones: human FGF14‐1b isoform (accession number: NM_175929.2) and human Nav1.6 (accession number: NM_014191.3). The CLuc‐FGF14, CD4‐Nav1.6‐NLuc, constructs and the pcDNA3.1 vector (Invitrogen, Carlsbad, CA) were engineered and characterized as previously described (Goetz et al., 2009; Shavkunov et al., 2012,2013,2015; Ali et al., 2016, 2018; Wadsworth et al., 2019). The plasmid pGL3 expressing full length Firefly (Photinus pyralis) luciferase was a gift from Dr. P. Sarkar (Department of Neurology, UTMB). For protein purification studies, cDNAs encoding FGF14‐1b (accession number NP_787125; aa 64–252) or the C‐terminal tail of Nav1.6 (accession number #NP_001171455; aa 1756–1939) were subcloned into suitable pET bacterial expression vectors (pET28a‐FGF14; pET30a‐Nav1.6) with a 6X His‐tag at the N‐terminal site; these plasmids were a gift of Dr. Moosa Mohammadi (NYU, Langone Medical Center). The mutation coding for FGF14^V160A was generated by site‐directed mutagenesis and PCR using FGF14‐1b as a template described previously (Ali et al., 2016). For electrophysiological studies FGF14‐GFP (human) and FGF14‐ΔNT‐GFP (human) were cloned into the GFP plasmid (pQBI‐fC2; Quantum Biotechnology Inc., Montreal, Canada) as previously described.
HEK293 cells were maintained in DMEM and F‐12 (Invitrogen, Carlsbad, CA), supplemented with 0.05% glucose, 0.5 mM pyruvate, 10% fetal bovine serum, 100 units/ml penicillin, and 100 µg/ml streptomycin (Invitrogen), and incubated at 37 °C with 5% CO2. HEK293 cells stably expressing the human Nav1.6 channel (hereafter referred to as HEK‐Nav1.6 cells) were maintained similarly except for the addition of 500 μg/ml G418 (Invitrogen) to maintain stable Nav1.6 expression. Cells were transfected at 80%–90% confluence with equal amount (1 μg each) of plasmid pairs using Lipofectamine 2000 (Invitrogen) according to manufacturer's instructions. HEK‐Nav1.6 cells were washed and replated at very low density prior to electrophysiological recordings (Ali et al., 2016, 2018; Scala et al., 2018; Wadsworth et al., 2019).
Twenty‐four hours after transfection, HEK293 cells were replated from the 24‐well plate using a 0.04% Trypsin:EDTA mixture dissolved in PBS. Suspended cells were centrifuged and seeded in white, clear‐bottom 96‐well tissue culture plates (Greiner Bio‐One) in 200 µl of medium. […] The bioluminescence reaction was initiated by dispensing 100 µl of D‐luciferin substrate (1.5 mg/ml dissolved in PBS) using a Synergy^TM H4 Multi‐Mode Micro plate Reader (Biotech, Winooski, VT). Luminescence readings were initiated after 3 s of mild plate shaking and performed at 2 min intervals for 20 min with integration times of 0.5 s. […]
To test the hypothesis that FLPK, PLEV and/or EYYV in cells could act as FGF14 inhibitors of the FGF14:Nav1.6 complex assembly, the complex was reconstituted using LCA (Ali et al., 2014, 2016; Hsu et al., 2015, 2017; Shavkunov et al., 2012,2013,2015; Wadsworth et al., 2019). HEK293 cells transfected with constructs expressing CLuc‐FGF14 and CD4‐Nav1.6 C‐tail‐NLuc in which luminescence is detected upon addition of the D‐luciferin substrate as a read‐out of protein binding (Figure 3). In‐cell binding of the reconstituted FGF14:Nav1.6 complex in the presence of vehicle (0.1% DMSO) is represented as summary bar graphs of percent maximal luminescence at 10–15 min of reaction time (Figure 3). […]

| Molecule | effect on FGF14:Nav1.6 complex formation | IC50 (HEK293 cells, FLPK 1, 10, 25, 50, 75, 100, 150, 250 µM, luminescence normalized to DMSO, apparent IC50, read-out: IC50, inhibition of FGF14:Nav1.6 complex formation) | efficacy in reducing FGF14:Nav1.6 complex formation (dose-response (Figure 3f), compared to control conditions) |
| --- | --- | --- | --- |
| CC(=O)N[C@@H](Cc1ccccc1)C(=O)N[C@@H](CC(C)C)C(=O)N1CCC[C@H]1C(=O)N[C@@H](CCCCN)C(N)=O [FLPK] (Ac-FLPK-NH2) | significant reduction of the FGF14:Nav1.6 complex formation; also recorded: weak inhibition | 58 µM | above 50% |
| PLEV [tetrapeptide previously designed from FGF14:FGF14 dimer interface; docked with N-terminal acetylation and C-terminal amidation] | significant reduction of the FGF14:Nav1.6 complex formation |  |  |
| EYYV [tetrapeptide previously designed from FGF14:FGF14 dimer interface; docked with N-terminal acetylation and C-terminal amidation] | significant reduction of the FGF14:Nav1.6 complex formation |  |  |
